Data reported in ChEMBL document CHEMBL3507680, “University of Dundee, Gates Library screen for HepG2 cell viability”.

Assay: Human HepG2 cell viability assay in 384 well format
Type: toxicity, cell-based
Parameters: dose 125 nL, time 70.5 hour; concentration not given beside the values
Conditions: HepG2 cells, read-out: Inhibition

SMILES	cytotoxicity at 70.5 h
COCCc1noc(CN2CCOC(Cn3nc(C)cc3C)C2)n1 (stereo unspecified)	2.63%
Clc1cc(CN2CCCN3CCCC3C2)c2ncccc2c1 (stereo unspecified)	-2.91%
CCN1CCCn2c(nc(CNC(=O)c3ccsc3)cc2=O)C1	-15.8%
COc1cccc(CN2CCc3nc(C(N)=O)sc3CC2)c1	-7.05%
c1cnn(CC2CCCN2Cc2nc(-c3ccoc3)no2)c1 (stereo unspecified)	28.2%
C[C@@H]1CN(CCOc2ccc(Cl)cc2)CC[C@@]1(O)C1CCOCC1	7.29%
COCC(=O)N1CCc2nc(-c3cnccn3)nc(O)c2C1	-8.12%
CC1CCc2c(c3ccccc3[nH]c2=O)O1 (stereo unspecified)	-6.86%
CN1CCCC(Cc2cc(N(C)C)ncn2)C1 (stereo unspecified)	-5.24%
CN(C)S(=O)(=O)c1ccc(CSCC(=O)NC(C)(C)C)o1	-8.48%
O=C(Nc1ccc(S(=O)(=O)Nc2ccccc2)cc1)N1CCCC1	-11.6%
Cn1cccc1C(=O)NCc1cn2c(n1)CN(Cc1cccnc1)CC2	-12.8%
CCN1CCN(c2ccccc2NC(=O)NCc2ccon2)CC1	-0.39%
Cc1noc(NC(=O)c2ccc(Br)s2)n1	24.3%
CCc1csc(CNC(=O)C(CC)n2cccn2)n1 (stereo unspecified)	-2.46%
Cn1ccnc1CN(CCO)C(=O)C1CCN(C(=O)C2CC2)CC1	0.876%
CC(C)(C)OC(=O)N1CCN(C(=O)c2sccc2C2CC2)CC1	-10%
O=C(CCCn1ccnc1)N1CCC2(CC1)[C@H](O)C[C@@H]2OCCO	-7.46%
O=C(NCc1ccccn1)[C@@]12CCO[C@@H]1CCN(Cc1ccccn1)C2	-5.8%
Cc1cccc(CNC[C@H]2Cn3ccnc3CO2)n1	-1.57%
CC1c2cccn2CCN1S(=O)(=O)N1CCCCCC1 (stereo unspecified)	-14.2%
N#CCCN(CC(=O)Nc1ccc(Br)cc1Cl)Cc1cccnc1	-1.52%
COc1c(CNC2CCN(C(=O)C3CC3)CC2)c(C(C)C)nn1C	0.393%
O=C(c1ccncn1)N1C[C@@H]2CN(Cc3cccnc3)CCO[C@@H]2C1	-12.7%

SMILES	cytotoxicity at 70.5 h
CC(=O)N1CCC(n2ccc(-c3cnc(NCC(C)C)nc3)n2)CC1	-5.12%
COc1ncc(C(=O)NCc2ccccc2)cn1	0.247%
Cc1nc(CN(C)C)cc(N2CCCC(COc3ccc(F)cc3)C2)n1 (stereo unspecified)	-5.18%
CC(=O)N1CCC(n2nccc2-c2cnc(NCCO)nc2)CC1	-9.44%
Cc1cccc(CNC2(CCO)CCOCC2)c1C	-2.52%
COCCCC1CCCCN1S(=O)(=O)c1cccc(C#N)c1 (stereo unspecified)	4.41%
O=C(c1ccsc1)N1CCc2onc(CN3CCOCC3)c2C1	-4.87%
CCN(CC)S(=O)(=O)N1CCc2nc(C3CCNCC3)ncc2C1	-4.41%
CCSCc1cccc(NCc2cccnc2)c1	-14.7%
CC(=O)N1CCCC1c1nc(C)c2c(n1)N(Cc1ccccn1)CCC2 (stereo unspecified)	-8.03%
COc1ccc(CN(C)Cc2nc3c(cnn3C)c(=O)[nH]2)cc1OC	-6.1%
CC1COc2ccccc2N1C(=O)c1ccnc(-n2cncn2)c1 (stereo unspecified)	9.86%
Cc1ccnc(NC(=O)C(C)Cn2cncn2)c1 (stereo unspecified)	13.8%
O=C1CCC(=O)N1c1nn(Cc2ccccc2)cc1Cl	20.6%
Cc1cc(CN(CCCO)c2ccccc2)on1	-0.833%
Cc1ccc(CNC(=O)Nc2nccs2)cn1	-4.14%
Cc1cc(C)cc(NC(=O)c2cnc(N3CCN(C)CC3)nc2C)c1	-0.093%
COCCCNC(=O)Cn1c(C)cc(=O)n2nc(-c3cccs3)nc12	-7.89%
COc1cccc2c1OCC(NCCCOc1cccnc1)C2 (stereo unspecified)	-5.15%
CN(CC(=O)NCCC#N)C(c1ccccc1)c1ccccc1	-14.5%
Cc1nn(C)c2nc(N3CCNC(=O)C3Cc3ccccc3)sc12 (stereo unspecified)	-2.78%
CN(CC(=O)N1CCCCC1Cn1cccn1)Cc1ccccc1 (stereo unspecified)	13%
c1cnc(-c2cnc(N3CCCCC3)nc2C2CCCO2)cn1 (stereo unspecified)	-5.56%
O=C1CCCC2=C1C(c1cccc(F)c1F)Nc1nonc1N2 (stereo unspecified)	1.2%

SMILES	cytotoxicity at 70.5 h
CC(C)c1ccn(C2(C(=O)O)CCN(c3cc(C(N)=O)ccn3)CC2)n1	-3.6%
Cc1cc(O)n(-c2ccccc2Cl)c(=O)c1C#N	-0.226%
CC(C)n1cnnc1CN(C)C(=O)c1ccc[nH]1	18.8%
CC[C@@H](CO)Nc1nccc(-c2cnc3sc(C)cn3c2=O)n1	15.2%
Cc1nn2cc(CCNC(=O)c3cc(C(C)C)nn3C)nc2s1	6.04%
CC(C)c1nccn1C(C)C(=O)N1CCN(c2cnccn2)CC1 (stereo unspecified)	-11.1%
NC(=O)c1csc(N2CCCC(c3nc4ccccc4[nH]3)C2)n1 (stereo unspecified)	-2.59%
CCCc1nnc(NC(=O)NC(C)Cn2cccn2)s1 (stereo unspecified)	-0.592%
CN(C)C1CCCN(C(=O)c2cccc(-c3ncc[nH]3)c2)CC1 (stereo unspecified)	-1.63%
CN(C)[C@@H]1CN(C(=O)Cc2ccsc2)[C@@H]2CCCO[C@H]12	16.1%
Oc1ccc(C2Nc3ccccc3C3=NCCCN32)cc1 (stereo unspecified)	-2.33%
CCN(CC)c1ncc2c(O)nc(C3CCNCC3)cc2n1	-4.7%
Cc1ccc(NC(=O)c2cccc(OCc3nnnn3C)c2)nc1	-9.18%
CNC(=O)CCCNc1cc(C)nc2cc(C)nn12	5.3%
Cc1cc(C(F)(F)F)cc(=O)n1Cc1nc(C(C)C)no1	-14.9%
Cc1ccc2nc(C)c(C)c(C(=O)N3CCN(c4nccs4)CC3)c2c1	-7.96%
Cc1cnc(C(=O)N2CCCN(Cc3cnn(C(C)C)c3)CC2)cn1	17.6%
Cc1cc(CN2CCCC(Cn3cncn3)C2)on1 (stereo unspecified)	-3.16%
CC(=O)NCc1ccc(C(=O)N2CCCC(n3cncn3)C2)o1 (stereo unspecified)	20.5%
CC(C)c1nnc2n1CCN(C(=O)c1cn(-c3ccccc3)nn1)C2	-6.83%
CC(C)C(C)(O)CNC(=O)Nc1ccccn1 (stereo unspecified)	-1.52%
Cc1nn(C)cc1-c1ccnc(N(C)Cc2ccoc2)n1	-3.89%
CC[C@@H]1N(Cc2cc(OC)cc(OC)c2)CCC[C@]12CCC(=O)N2C	-16.6%
Cn1ccc(C(=O)NC2CCC23CCN(C(=O)N2CCCC2)CC3)c1 (stereo unspecified)	-1.08%

SMILES	cytotoxicity at 70.5 h
CNc1nc(C(=O)N2CCC3(CCCN(CCOC)C3=O)C2)cs1 (stereo unspecified)	-3.96%
COC[C@]1(O)CCN(C(=O)c2ccc(CN(C)C)o2)CC1(C)C	-12.5%
COC(=O)c1sccc1NC(=O)C1CCCN1C(=O)c1ccco1 (stereo unspecified)	16.3%
CCC(CC)NC(=O)c1cccnc1-n1cccn1	18%
CCn1nc(C)c2nn(CC(=O)NC3CCSCC3)cc21	6.6%
O=C(c1cn2ccsc2n1)N1CCN(CC2CC2)[C@@H]2CS(=O)(=O)C[C@@H]21	-10.5%
Cn1ccc2c(C(=O)NCC3(C(N)=O)CCOCC3)cccc21	1.25%
CN(C)c1ccc2c(c1)CN(C(=O)c1cnccn1)C2c1cnco1 (stereo unspecified)	22.8%
Cc1cccc(C(=O)N2CCSCC2)c1NC(=O)c1cccnc1	-7.35%
O=C(C(c1ccccc1)S(=O)(=O)c1ccccn1)N1CCCC1 (stereo unspecified)	-2.5%
Cn1nccc1C(=O)N1CCOC(Cc2ccc(F)cc2)C1 (stereo unspecified)	-3.53%
CCc1ccc(CN2CCN(c3ccc(C#N)cc3)C(=O)C2)nc1	-10.5%
CN1CCOCC2(CCCN(C(=O)Cc3ccncc3)C2)C1 (stereo unspecified)	-11.6%
CC(C)CC(=O)N1CCCC1c1cc(CO)[nH]n1 (stereo unspecified)	-4.42%
CCc1ccc(NC(=O)C2CCN(C(=O)COC)CC2)cc1	-9.16%
Cc1nc(CNC(=O)Nc2c(C)n[nH]c2C)cs1	-9.25%
COCCOc1cc(C)ccc1NC(=O)N(C)Cc1cnn(C)c1	-13.2%
CC(C)c1nc(CN(C)Cc2cnc(N3CCOCC3)nc2)no1	-6.44%
Cc1cccc(C(=O)N2CCC[C@]3(C[C@@H](OCC4CC4)CO3)C2)n1	-13.9%
Cc1nc(C)n(CC2CN(Cc3cscn3)CCO2)n1 (stereo unspecified)	-6.91%
CC(=O)N1CCc2[nH]cnc2C1C1=CCCN(CCn2cccc2)C1 (stereo unspecified)	-4.34%
CC(C)c1nnc(NCc2cc3n(n2)CCN(C2CCCCC2)C3)s1	-0.516%
O=S(=O)(CC1CCCCO1)Nc1cc(F)ccc1-n1cccn1 (stereo unspecified)	9.49%
Cc1ccoc1C(=O)N1CCC(n2cc(CO)nn2)CC1	-3.4%

SMILES	cytotoxicity at 70.5 h
O=C(NCCOc1ncc(Cl)cc1Cl)c1ccncc1F	0.0766%
Cc1ccc(NS(=O)(=O)c2c[nH]c3ncccc23)nc1	-2%
COc1ccc(CN(C)[C@@H]2CN(S(=O)(=O)C(C)C)C[C@H]2O)cc1	-2.64%
CC(C)CN1CCCC2(CCN(c3ccccn3)C2)C1 (stereo unspecified)	8.64%
Cc1nc(N2CCCC2)nc2c1CCN(Cc1ccoc1)CC2	-6.88%
CCSc1ccc(C(=O)N2CCCCC2C(=O)N2CCCC2)cn1 (stereo unspecified)	-0.733%
CN(C)CCN1C(=O)CC[C@@H]2[C@H]1CCN2Cc1cccc(C#N)c1	-8.56%
CCC[C@H]1CN(S(C)(=O)=O)C[C@@H]1NC(=O)COC(C)C	-5.47%
CCN(CC)C(=O)c1nnn(Cc2ccccc2)c1OC	0.599%
CCc1nc(CN(C)C2CCCN(c3cccnn3)C2)no1 (stereo unspecified)	16.7%
O=C1NCCCc2c1oc1ccc(O)c(CN3CCOCC3)c21	30.3%
CCc1ccccc1CN1CC[C@@]2(O)CCN(S(=O)(=O)N(C)C)C[C@H]2C1	-3.87%
C[C@H]1C[C@H]2CN(C(=O)c3ccncn3)CC[C@H]2O1	-0.543%
NCCCn1nc(C(F)(F)F)c2c1CCC2	-7.21%
O=C(CC1CCc2ccccc21)NC1(C(=O)O)CCOCC1 (stereo unspecified)	-14%
O=C(NCCOc1ccc(F)cc1)C1CCCN(C(=O)C2CC2)C1 (stereo unspecified)	-17.7%
CC(c1cccc(Cl)c1)N(C)CCS(=O)(=O)CCC(N)=O (stereo unspecified)	-0.172%
O=C1N[C@@H]2CCN(C(=O)c3ccccc3)[C@@H]2C(=O)N1c1ccc(F)cc1	-12.9%
Cc1ccc(C(=O)N(C)Cc2c(C)noc2C)c(=O)[nH]1	-0.278%
CC(=O)NCCN1CCC(c2cccs2)CC1	0.738%
